{
  "source": "paper PMC9658316",
  "about": "“Discovery of Mitochondrial Complex I Inhibitors as Anticancer and Radiosensitizer Drugs Based on Compensatory Stimulation of Lactate Release” (Cancers, 2022)",
  "key": {"[1]": {"test_system": "CT26 colon cancer cells", "assay": "Growth inhibitory effects on cultured CT26 cells (Presto Blue)", "format": "cell-based, mouse", "conditions": "CT26 monolayers, 1 µM, 72 h", "description": "(§1) Mouse colorectal CT26 and breast 4T1 cancer cells as well as human cervix cancer SiHa and breast MDA-MD-231 cancer cells were acquired from ATCC where they are regularly authenticated by short tandem repeat profiling. They were stored according to the supplier’s instructions and used within 6 months after resuscitation of frozen aliquots. Cancer cells were maintained in DMEM (Life Technologies, ThermoFischer scientific, Merebelke, Belgium) supplemented with 10% heat-inactivated FBS. All cell lines were tested for mycoplasma contamination with the MycoAlert™ Mycoplasma Detection kit (#LT07-318; Lonza, Verviers, Belgium) before being used. Cell integrity was determined by the Trypan Blue exclusion method (using Bürker chambers) while cell growth was assessed by using the Presto Blue reagent (Life Technologies) according to manufacturer’s instructions.\n(§2) Figure 4 Mitochondrial complex I activity inhibition (Assay #2). (A–D). Graphs depict changes in O2 consumption rate (OCR) measured with the Seahorse technology on permeabilized CT26 cancer cells upon successive addition of pyruvate/malate, the indicated inhibitor and succinate. OXPHOS I inhibitor IACS was used as a control in the experiments testing reference compound aa (A), and compound aa (10µM) was used as reference for testing au, ah and at derivatives (B–D) (n = 6 per compound). (E,F). Growth inhibitory effects of cultured CT26 (E) and 4T1 […] cancer cells exposed to 100 nM IACS or 1 µM aa, ag, aj and au compounds for 72 h; data represent the reduced extent (expressed as %) of cell viability (determined with Presto Blue) when compared with vehicle conditions (n = 3)."}, "[2]": {"test_system": "intact CT26 cancer cells", "assay": "Seahorse basal OCR and ECAR in intact (non-permeabilized) CT26 cancer cells", "format": "cell-based, mouse", "conditions": "non-permeabilized CT26 cells, 10 µM", "description": "(§3) L-lactate concentration was measured in a semi-automated manner using CMA Microdialysis AB enzymatic assay and a CMA 600 analyzer (Aurora Borealis, Schoonebeek, The Netherlands) as previously described. Briefly, cells (2 × 10^5 cells per well; 3 wells/condition) were seeded in 12-well plates with 2 mL of their routine culture medium. After 24 h, medium was replaced by 500 µL of DMEM containing 10 mmol/L D-glucose and supplemented with 2 mmol/L L-glutamine and 10% dialyzed FBS (Sigma-Aldrich), in the presence of the compounds or vehicle (DMSO). The initial concentration of L-lactate in the experimental medium was also assessed by including control wells containing only cell culture medium (no cells) on each plate. After incubation for 24 h, extracellular media were collected and deproteinized by centrifugation (15 min, 10,000 rpm, 4 °C) in 10 kDa cut-off filter tubes (VWR, Avantor, Leuven, Belgium). Differences in L-lactate concentrations between control and treated cells were calculated and normalized by the protein content in each well and expressed in µmol/h/mg protein. Oxygen-consumption rate (OCR) was measured using the Seahorse XF96 plate reader as previously reported. Briefly, cells (2 × 10^4 cells per well) were first permeabilized with 1 nM Seahorse XF Plasma Membrane Permeabilizer (#102504-100; Agilent, Machelen, Belgium) and respiration was stimulated by adding 10 mM pyruvate, 5 mM malate, and 2 mM ADP. After baseline OCR determination, compounds were added (to inhibit complex I) followed by 10 mM succinate to fuel complex II and rescue the electron transport chain. In some experiments, the effects of selected hits on basal OCR were evaluated in intact cells (including in the presence of MCT1/2 inhibitor AR-C155858 [29] or methylpyruvate). OCR data were normalized according to protein content in each well.\nSince other lactate transporters could be involved, we also used methylpyruvate which can bypass the need for a mitochondrial carrier and mimic the result of lactate oxidation by a mitochondrial LDH or ensure the delivery of pyruvate into the mitochondria matrix. […] In the same experiments carried out on non-permeabilized cancer cells, the extent of basal OCR inhibition in response to 10 µM aa was similar to that observed with 100 nM IACS-010759 (−52 ± 5% and −45 ± 6%, respectively) and mirrored by an increase in extracellular acidification rate (ECAR) (+36 ± 11% and +29 ± 9%, respectively)."}, "[3]": {"test_system": "breast 4T1 cancer cells", "assay": "Growth inhibitory effects on cultured 4T1 cells (Presto Blue)", "format": "cell-based, mouse", "conditions": "4T1 monolayers, 1 µM, 72 h, compared with CT26", "description": "as §1, §2"}, "[4]": {"test_system": "colorectal CT26 cancer cells", "assay": "Compound-induced L-lactate release (Assay #1), CT26", "format": "cell-based, mouse", "conditions": "10 µM, 24 h exposure, L-lactate secretion above basal release", "description": "as §3\nFigure 3 Compound-induced L-lactate release (Assay #1). Culture medium was collected after 24 h exposure to the indicated compounds (10 µM) and the amount of extracellular L-lactate release was determined in a semi-automated manner; dose-dependent effects of complex I inhibitor IACS are shown on the right (shaded bars). Bar graph depicts the extent of L-lactate secretion above the basal release as determined in the absence of any compound (n = 3, ** p < 0.01 for increased L-lactate release vs. reference compound aa)."}, "[5]": {"test_system": "human cervix Siha cancer cells", "assay": "Growth inhibitory effects on human cancer cells (Presto Blue), SiHa vs MDA-MB-231", "format": "cell-based", "conditions": "1 µM", "description": "as §1\nSuppl. Figure S3. Growth inhibitory effects of hit compounds on human cancer cells. MDA-M B-231 (A) and Siha (B) cancer cells were exposed to 100 nM IACS or 1 µM aa, ag, aj and au compounds; data represent the reduced extent (expressed as %) of cell viability (determined with Presto Blue) when compared with vehicle conditions (n=3).\n(also on this page, place not known: 60Growth inhibitory effects (%) MDA-MB-231 aa au 60Growth inhibitory effects (%))"}, "[6]": {"target": "mitochondrial complex I (Mus musculus, UniProt P03888+Q91WD5+Q9DC70)", "assay": "Seahorse OCR in permeabilized CT26 cancer cells, mitochondrial complex I inhibition (Assay #2)", "format": "cell-based", "description": "as §3\n(A–D). Graphs depict changes in O2 consumption rate (OCR) measured with the Seahorse technology on permeabilized CT26 cancer cells upon successive addition of pyruvate/malate, the indicated inhibitor and succinate. […] (E,F)."}, "[7]": {"assay": "Cell integrity by Trypan blue exclusion", "format": "cell-based", "conditions": "cancer cells (cell line not specified); 24 h after exposure; read-out: viable cancer cells (Trypan blue exclusion)", "description": "as §1\nStill, to support the anticancer potential of complex I inhibition, we also examined the cytotoxic effects of longer exposure of intact cancer cells to reference compound aa and hit compounds ag, aj and au. […] While the nature of cell death induced by aa derivatives is beyond the scope of this manuscript, alteration in mitochondria fitness and capacity to buffer calcium could be involved as previously reported."}},
  "data": [
    {"smiles": "NC(=O)c1nnn(Cc2cc(Cl)c(C(=O)c3ccc(Cl)cc3)c(Cl)c2)c1N", "note": "[compound aa, carboxyamidotriazole, reference compound]", "values": [
      {"measurement": "cytotoxic / growth inhibitory effects", "setting": "[1]", "value": "very limited effects"},
      {"measurement": "increase in extracellular acidification rate (ECAR)", "setting": "[2]", "value": "+36 ± 11%"},
      {"measurement": "growth inhibitory activity", "setting": "[3]", "value": "more significant growth inhibitory activity"},
      {"measurement": "[LAC] increase", "setting": "[4]", "value": "~2", "unit": "µmol/h/mg"},
      {"measurement": "antiproliferative effects in Siha compared with MDA-MB-231 cells", "setting": "[5]", "value": "Larger antiproliferative effects"},
      {"measurement": "concentration at which complex I-dependent OCR reduction was detectable", "setting": "[6]", "value": 1, "unit": "µM"},
      {"measurement": "reversal of OCR inhibition upon succinate addition", "setting": "[6]; 10 mM succinate", "value": "full reversal of OCR inhibition"},
      {"measurement": "viability at 24 h", "setting": "[7]", "value": "90.9 ± 5.1", "unit": "%"}
    ]}
  ]
}
